Laboratory results from patent EP3928779A1 (Chugai Seiyaku Kabushiki Kaisha, priority 2014, dated 2016).

Test system: rat small-intestinal brush border membrane vesicles
Assay: Inhibitory effect on 33PO4 uptake into rat small-intestinal brush border membrane vesicles (rapid filtration method)
Type: biochemical
Conditions: 33PO4 uptake into rat small-intestinal BBMVs; test compound 1 µM; reacted for 60 seconds
How it was run: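 Uptake of ^33PO4 was measured by rapid filtration and liquid scintillation counting of filter-retained vesicles, after quenching with ice-cold 110 mM NaCl/1 mM KH2PO4/10 mM HEPES pH 7.5. Vesicles were brush border membranes from the upper small intestine of female Wistar rats aged 4–5 weeks.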

| Compound | Rate of uptake inhibition (%) (1 µM) |
| --- | --- |
| CN1N(Cc2ccc(OCCCCOC[C@H](O)CO)c(F)c2F)C(=O)C(C(=O)Nc2ccc(C(F)(F)F)cc2-c2ccc(C(F)(F)F)nc2)=C(O)C12CCCC2 [Example 387] | 23 |
| CN1N(Cc2ccc(OCCCCCOC[C@H](O)CO)c(F)c2F)C(=O)C(C(=O)Nc2ccc(C(F)(F)F)cc2-c2ccc(C(F)(F)F)nc2)=C(O)C12CCCC2 [Example 388] | 15 |
| CN1N(Cc2ccc(OCCCOC[C@H](O)CO)c(F)c2F)C(=O)C(C(=O)Nc2ccc(C(F)(F)F)cc2-c2cc(C(F)(F)F)ncn2)=C(O)C12CCC2 [Example 389] | 29 |
| CN1N(Cc2ccc(OCCCCOC[C@H](O)CO)c(F)c2F)C(=O)C(C(=O)Nc2ccc(C(F)(F)F)cc2-c2cc(C(F)(F)F)ncn2)=C(O)C12CCC2 [Example 390] | 58 |
| CN1N(Cc2ccc(OCCCCCOC[C@H](O)CO)c(F)c2F)C(=O)C(C(=O)Nc2ccc(C(F)(F)F)cc2-c2cc(C(F)(F)F)ncn2)=C(O)C12CCC2 [Example 391] | 42 |
| CN1N(Cc2ccc(OCCCOC[C@H](O)CO)c(F)c2F)C(=O)C(C(=O)Nc2ccc(C(F)(F)F)cc2-c2cc(C(F)(F)F)ncn2)=C(O)C12CCCC2 [Example 392] | 47 |
| CN1N(Cc2ccc(OCCCCOC[C@H](O)CO)c(F)c2F)C(=O)C(C(=O)Nc2ccc(C(F)(F)F)cc2-c2cc(C(F)(F)F)ncn2)=C(O)C12CCCC2 [Example 393] | 45 |
| CN1N(Cc2ccc(OCCCCCOC[C@H](O)CO)c(F)c2F)C(=O)C(C(=O)Nc2ccc(C(F)(F)F)cc2-c2cc(C(F)(F)F)ncn2)=C(O)C12CCCC2 [Example 394] | 45 |
| CN1N(Cc2ccc(OCCCOCCO)c(F)c2F)C(=O)C(C(=O)Nc2ccc(C(F)(F)F)cc2-c2cc(C(F)(F)F)ncn2)=C(O)C12CCCC2 [Example 395] | 39 |
| CN1N(Cc2ccc(OCCCCOCCO)c(F)c2F)C(=O)C(C(=O)Nc2ccc(C(F)(F)F)cc2-c2cc(C(F)(F)F)ncn2)=C(O)C12CCCC2 [Example 396] | 38 |
| CN1N(Cc2ccc(OCCCCCOCCO)c(F)c2F)C(=O)C(C(=O)Nc2ccc(C(F)(F)F)cc2-c2cc(C(F)(F)F)ncn2)=C(O)C12CCCC2 [Example 397] | 40 |
| CN1N(Cc2ccc(OCCCOCCCO)c(F)c2F)C(=O)C(C(=O)Nc2ccc(C(F)(F)F)cc2-c2cc(C(F)(F)F)ncn2)=C(O)C12CCCC2 [Example 398] | 34 |
| CN1N(Cc2ccc(OCCCCOCCCO)c(F)c2F)C(=O)C(C(=O)Nc2ccc(C(F)(F)F)cc2-c2cc(C(F)(F)F)ncn2)=C(O)C12CCCC2 [Example 399] | 42 |
| CN1N(Cc2ccc(OCCCCCOCCCO)c(F)c2F)C(=O)C(C(=O)Nc2ccc(C(F)(F)F)cc2-c2cc(C(F)(F)F)ncn2)=C(O)C12CCCC2 [Example 400] | 36 |
| COCCOCCOc1ccc(CN2C(=O)C(C(=O)Nc3ccc(C(F)(F)F)cc3-c3cc(C(F)(F)F)ncn3)=C(O)C3(CCC3)N2C)c(F)c1F [Example 401] | 39 |
| CN(CCOc1ccc(CN2C(=O)C(C(=O)Nc3ccc(C(F)(F)F)cc3-c3cc(C(F)(F)F)ncn3)=C(O)C3(CCC3)N2C)c(F)c1F)C1COC1 [Example 402, 6-(2,3-Difluoro-4-(2-(methyl(oxetan-3-yl)amino)ethoxy)benzyl)-9-hydroxy-5-methyl-7-oxo-N-(4-(trifluoromethyl)-2-(6-(trifluoromethyl)pyrimidin-4-yl)phenyl)-5,6-diazaspiro[3.5]non-8-ene-8-carboxamide] | 54 |
| CN1N(Cc2ccc(OC3COC3)c(F)c2F)C(=O)C(C(=O)Nc2ccc(C(F)(F)F)cc2-c2cc(C(F)(F)F)ncn2)=C(O)C12CCC2 [Example 403, 6-(2,3-Difluoro-4-(oxetan-3-yloxy)benzyl)-9-hydroxy-5-methyl-7-oxo-N-(4-(trifluoromethyl)-2-(6-(trifluoromethyl)pyrimidin-4-yl)phenyl)-5,6-diazaspiro[3.5]non-8-ene-8-carboxamide] | 71 |
| COCCN1CCC[C@H]1COc1ccc(CN2C(=O)C(C(=O)Nc3ccc(C(F)(F)F)cc3-c3cc(C(F)(F)F)ncn3)=C(O)C3(CCC3)N2C)c(F)c1F [Example 404, 6-[[2,3-Difluoro-4-[[(2S)-1-(2-methoxyethyl)pyrrolidin-2-yl]methoxy]phenyl]methyl]-9-hydroxy-5-methyl-7-oxo-N-[4-(trifluoromethyl)-2-[6-(trifluoromethyl)pyrimidin-4-yl]phenyl]-5,6-diazaspiro[3.5]non-8-ene-8-carboxamide] | 43 |
| COCCN1CC[C@@H](Oc2ccc(CN3C(=O)C(C(=O)Nc4ccc(C(F)(F)F)cc4-c4cc(C(F)(F)F)ncn4)=C(O)C4(CCC4)N3C)c(F)c2F)C1 [Example 405, 6-[[2,3-Difluoro-4-[(3R)-1-(2-methoxyethyl)pyrrolidin-3-yl]oxyphenyl]methyl]-9-hydroxy-5-methyl-7-oxo-N-[4-(trifluoromethyl)-2-[6-(trifluoromethyl)pyrimidin-4-yl]phenyl]-5,6-diazaspiro[3.5]non-8-ene-8-carboxamide] | 30 |
| COCCN1CC(Oc2ccc(CN3C(=O)C(C(=O)Nc4ccc(C(F)(F)F)cc4-c4cc(C(F)(F)F)ncn4)=C(O)C4(CCC4)N3C)c(F)c2F)C1 [Example 406] | 27 |
| CN1N(Cc2ccc(OC(C)(C)CN3CCOCC3)c(F)c2F)C(=O)C(C(=O)Nc2ccc(C(F)(F)F)cc2-c2cc(C(F)(F)F)ncn2)=C(O)C12CCC2 [Example 407, 6-[[2,3-Difluoro-4-(2-methyl-1-morpholin-4-ylpropan-2-yl)oxyphenyl]methyl]-9-hydroxy-5-methyl-7-oxo-N-[4-(trifluoromethyl)-2-[6-(trifluoromethyl)pyrimidin-4-yl]phenyl]-5,6-diazaspiro[3.5]non-8-ene-8-carboxamide] | 30 |
| CC(CN1CCOCC1)Oc1ccc(CN2C(=O)C(C(=O)Nc3ccc(C(F)(F)F)cc3-c3cc(C(F)(F)F)ncn3)=C(O)C3(CCC3)N2C)c(F)c1F (stereo not shown) [Example 408] | 47 |
| CN1CCC(Oc2ccc(CN3C(=O)C(C(=O)Nc4ccc(C(F)(F)F)cc4-c4cc(C(F)(F)F)ncn4)=C(O)C4(CCC4)N3C)c(F)c2F)CC1 [Example 411] | 32 |
| CN(CCOc1ccc(CN2C(=O)C(C(=O)Nc3ccc(C(F)(F)F)cc3-c3cc(C(F)(F)F)ncn3)=C(O)C3(CCCC3)N2C)c(F)c1F)C1COC1 [Example 412, 7-(2,3-Difluoro-4-(2-(methyl(oxetan-3-yl)amino)ethoxy)benzyl)-10-hydroxy-6-methyl-8-oxo-N-(4-(trifluoromethyl)-2-(6-(trifluoromethyl)pyrimidin-4-yl)phenyl)-6,7-diazaspiro[4.5]dec-9-ene-9-carboxamide] | 52 |
| CN1N(Cc2ccc(OCC3CCCO3)c(F)c2F)C(=O)C(C(=O)Nc2ccc(C(F)(F)F)cc2-c2cc(C(F)(F)F)ncn2)=C(O)C12CCCC2 (stereo not shown) [Example 413] | 34 |
